Test results published in the NIST ThermoML archive (doi:10.1021/je800517r).
“And” between values parts separate entries of the source, which are not always exact repeats. Identical values can stand only once.

Assay: activity coefficient (dimensionless); of the first substance listed, at infinite dilution; xn = mol fraction of the nth substance listed
Conditions: Liquid, comparative ebulliometry, circulation still, and differential distillation method, x1 = 0

CC(=O)N(C)C [N,N-dimethylethanamide] + O
Conditions | activity coefficient
343.15 K | 1.27
343.51 K | 1.29
349.03 K | 1.46
351.15 K | 1.37
353.5 K | 1.72 and 1.79
363.87 K | 2.06 and 2.24
370.86 K | 2.12
372.28 K | 2.05

CNC(C)=O [N-methylacetamide] + O
Conditions | activity coefficient
333.15 K | 1.7
343.15 K | 1.78
353.15 K | 1.82

CNC=O [N-methylformamide] + O
Conditions | activity coefficient
333.15 K | 1.37
343.15 K | 1.42
353.15 K | 1.44
372.65 K | 1.65

CN(C)C=O [dimethylformamide] + O
Conditions | activity coefficient
343.73 K | 1.23
349.05 K | 1.27
353.45 K | 1.3
357.91 K | 1.3
358.5 K | 1.36
363.82 K | 1.35
368.38 K | 1.59
371.62 K | 1.54
372 K | 1.66
